Patent US20230363424A1, “COMPOUNDS AND METHODS FOR ENHANCING SWEETNESS OF SWEETENERS” (Conagen Inc., priority 2021, published 2023)

How the values were obtained:
Format in all cases: in vivo, human
taste panelists [1] = test: Sweetness enhancing effect with sucrose, 2AFC sip and spit test; settings: control 5% sucrose solution, n=30
Method: (§1) The sweetness enhancing effect of Compounds (1), (2), and (3) when used with certain sweeteners (specifically, sucrose or rebaudioside M) was evaluated using a two-alternative forced choice “sip and spit” method (2AFC). The 2AFC test used for compound evaluation was a double-blinded and randomized test where taste panelists (n=30) evaluated a pair of sweetener solutions at a time—one sample contains aqueous sweetener solution plus compound (test sample), while the other contains the aqueous sweetener solution without compound (control). Each test sample was compared against a positive control. For example, if the test sample contained 5% sucrose solution with Compound (1), the positive control contained a 5% sucrose solution (i.e., without Compound (1)). Panelists were instructed not to eat or drink (except water) for at least 1 hour before the test. During the test panelists were instructed to sip each sample, swirl it around their mouth and then expectorate. After tasting each sample in the pair, panelists were instructed to record the sample that is “sweeter” in taste. Panelists cleansed their palates by rinsing with water, eating a cracker and waiting for an interval of about 5 minutes. All samples were tested at ambient temperatures.

taste panelists [2] = test: Sweetness enhancing effect with rebaudioside M, 2AFC sip and spit test; settings: control 100 ppm Reb M solution, n=30
Method: as §1

taste panelists [3] = test: Inherent sweetness, two-alternative forced choice sip and spit (2AFC) vs 1.5% sucrose control; settings: control 1.5% sucrose, n=30
Method: The inherent sweetness of Compounds (1), (2), and (3) as perceived by human subjects was evaluated using a two-alternative forced choice “sip and spit” method (2AFC). The 2AFC test used for compound evaluation was a double-blinded and randomized test where taste panelists (n=30) evaluated a pair of sweetener solutions at a time—one sample is a 1.5% sucrose control, while the other is an aqueous solution containing a test compound at the indicated concentration. Panelists were instructed not to eat or drink (except water) for at least 1 hour before the test. During the test panelists were instructed to sip each sample, swirl it around their mouth and then expectorate. […] Panelists cleansed their palates by rinsing with water, eating a cracker and waiting for an interval of about 5 minutes. All samples were tested at ambient temperatures.

[4] = compound 20 ppm in aqueous solution
[5] = compound 50 ppm in aqueous solution
[6] = compound 80 ppm in aqueous solution
[7] = compound 20 ppm in 100 ppm Reb M solution

| SMILES | panelists who chose Sample as sweeter than Control (taste panelists [1]; compound 20 ppm in 5% sucrose solution) | panelists who chose Sample as sweeter than Control (taste panelists [2]; compound 40 ppm in 100 ppm Reb M solution) | panelists who chose Sample as comparable in sweetness to Control (taste panelists [3]; [4]) | panelists who chose Sample as comparable in sweetness to Control (taste panelists [3]; [5]) | panelists who chose Sample as comparable in sweetness to Control (taste panelists [3]; [6]) | panelists who chose Test Sample as sweeter than Control (taste panelists [1]; compound 60 ppm in 5% sucrose solution) | panelists who chose Sample as sweeter than Control (taste panelists [2]; [7]) | panelists who chose Sample as sweeter than Control (taste panelists [1]; compound 40 ppm in 5% sucrose solution) |
| --- | --- | --- | --- | --- | --- | --- | --- | --- |
| COc1cc(C2CC(=O)Oc3cccc(O)c32)ccc1O (stereo not drawn) [Compound (3), 5-hydroxy-4-(4-hydroxy-3-methoxyphenyl)chroman-2-one] | 28 of 30 panelists | 20 of 30 panelists | 2 of 30 panelists chose Sample as | 2 of 30 panelists chose Sample as | 1 of 30 panelists chose Sample as | – | – | – |
| Cc1cc(O)c2c(c1)OC(=O)CC2c1ccc(O)c(O)c1 (stereo not drawn) [Compound (1), 4-(3,4-dihydroxyphenyl)-5-hydroxy-7-methylchroman-2-one] | – | – | 1 of 30 panelists chose Sample as | 2 of 30 panelists chose Sample as | 2 of 30 panelists chose Sample as | 21 of 30 panelists | 29 of 30 panelists | – |
| COc1cc(C2CC(=O)Oc3ccc(O)c(C)c32)ccc1O (stereo not drawn) [Compound (2), 6-hydroxy-4-(4-hydroxy-3-methoxyphenyl)-5-methylchroman-2-one] | – | – | 1 of 30 panelists chose Sample as | 1 of 30 panelists chose Sample as | 1 of 30 panelists chose Sample as | – | 30 of 30 panelists | 29 of 30 panelists |
